This assay has as its system SS tumour cell lines (HS-SY-II, ASKA, YAMOTO, CME1, SYO1). Nature of the assay: Five-day cell viability (CellTiter-Glo) in synovial sarcoma tumour cell lines. Format: cell-based, human. The source says:
FIG. 8. ATR genetic dependency synovial sarcoma tumour cells—part 1. A. ATR siRNA Z scores from the siRNA screens described in FIG. 7, classified according to the cancer histology of tumour cell lines. B. Dose-response survival curves illustrating sensitivity of SS tumour cell lines to the ATR small molecule inhibitor (ATRi) VX970, compared to ATRi resistant HCT116 cells. Cells were exposed to drugs for five days and cell viability estimated using CellTiter-Glo. For each SS tumour cell line, dose response ANOVA p<0.0001 vs. HCT116. C. Dose-response survival curves illustrating sensitivity of SS tumour cell lines to VX970, compared to ATRi resistant ARID1A wild type HCT116 cells (HCT116 ARID1A^+/+) and ARID1A defective HCT116 cells (HCT116 ARID1A^−/−). Cells were exposed to drugs for five days and cell viability estimated using CellTiter-Glo. For each SS tumour cell line and HCT116 ARID1A^−/−, dose response ANOVA p<0.0001 vs. HCT116 ARID1A^+/+. D. VX970 area under the curve (AUC) values in tumour cell lines. ARID1A defective cells indicated as “ARID1A^−/−”, Ewings sarcoma tumour cell lines shown as “EWS”. E. Anti-tumour response in mice bearing established synovial sarcoma PDX, SA13412, to treatment with VX970. Median tumour volumes after the initiation of VX970 treatment are shown. Error bars represent standard error of the mean (SEM). F. Kaplan-Meier survival plot of data from (E). log rank Mantel p=0.026. G. Western blot illustrating expression of synovial sarcoma fusion proteins in HCT116 cells. A SS18-SSX1 variant with the final eight residues of SSX1 deleted (Δ71-78) is shown as d71-78. H. Bar chart illustrating induction of AXIN2 mRNA after expression of synovial sarcoma fusion proteins in HCT116 cells. I-K. Dose-response survival curves illustrating that expression of synovial sarcoma fusion proteins in HCT116 cells causes ATRi sensitivity.
FIG. 9. ATR genetic dependency synovial sarcoma tumour cells—part 2. […] Cells were transfected with ATR siRNAs and cell viability estimated five days later by the use of Cell Titre Glo. Bar chart showing surviving fractions are shown left and middle. Western blot illustrating ATR protein silencing is shown right. Z scores from the siRNA screens described in FIG. 7, classified according to the cancer histology of tumour cell lines. B. Dose-response survival curves illustrating sensitivity of SS tumour cell lines to the ATR small molecule inhibitor (ATRi) VX970, compared to ATRi resistant HCT116 cells and non-tumour cells (HFF1, MCF10A). […]
Having confirmed the sensitivity of SS tumour cell lines to siRNA in validation experiments (FIG. 9A), we assessed the sensitivity of the five SS tumour cell lines to the clinical ATR inhibitor (ATRi), VX970 (Vertex Pharmaceuticals). […]

The record followed here is patent US12233060B2, “Inhibitors of Ataxia-Telangiectasia Mutated and Rad3-related protein kinase (ATR) for use in methods of treating cancer” (THE INSTITUTE OF CANCER RESEARCH: ROYAL CANCER HOSPITAL, priority 2016, dated 2025).

In the case of `CNCc1ccc(-c2cc(-c3nc(-c4ccc(S(=O)(=O)C(C)C)cc4)cnc3N)on2)cc1` [VX-970, 5-[4-(Isopropylsulfonyl)phenyl]-3-(3-{4-[(methylamino)methyl]phenyl}-1,2-oxazol-5-yl)-2-pyrazinamine], the “sensitivity of SS tumour cell lines vs Ewing's sarcoma and ARID1A defective tumour cells” value (AUC and SF50 comparison) is listed as “VX970 sensitivity comparable”. The IC50 (Homo sapiens, 120 h, each of five SS tumour cell lines, five days exposure, read-out: SF50 (concentration required to cause 50% reduction in cell survival)) was around 100 nM. For the same molecule, under “five days”, the “sensitivity of SS tumour cell lines vs ARID1A defective HCT116 cells” value is “as sensitive to VX970 as HCT116 cells”. Moreover, the “sensitivity of SS tumour cell lines vs ATRi resistant HCT116 cells” value (five days, ANOVA p<0.0001) is given as “profoundly sensitive to VX970”.
